One assay concerns SV-HUC-1 cell line. The assay can be described thus: MTT cell proliferation assay. It counts as cell-based, human. As to conditions: for cells killed at the highest concentration: SV-HUC-1, MTT, highest concentration used (20 μM). Here is the method: (§1) Cell proliferation was determined using the 3-(4,5-dimethylthiazol-2-yl)-2,5-diphenyltetrazolium bromide (MTT) assay (Sigma-Aldrich, Steinheim, Germany). Cells were plated at a density of 1 × 10^5 cells per mL in 96-well plates (Thermo Fisher Scientific, Roskilde, Denmark) and allowed to attach overnight. Subsequently, Degrasyn and PR-619 were added in increasing concentrations (0.6, 1.25, 2.5, 5, 10, and 20 μM). After incubation for 24, 48, and 72 h with either the compounds or in the medium alone, 20 μL of MTT solution (5 mg/mL) was added to each well. After an additional 4 h, 80 μL of the lysis buffer (225 mL DMF, 67.5 g SDS, and 275 mL distilled water) was added to each well. After dissolving the content, the absorbance was measured at a […] of 570 nm using a spectrophotometric microplate reader Spark (Tecan). The values were obtained from 3 independent experiments (different plates, different days). Based on the results, the concentration that inhibited 50% of the cell proliferation (IC50) was calculated for all incubation intervals.

The next assay relates to T24 cell line. The assay can be described thus: MTT cell proliferation assay. Type of assay: cell-based, human. As to conditions: for cells killed at the highest concentration: T24, MTT, highest concentration used (20 μM). Here is the method: as §1
For assay [1], the system named is K9TCC-PU-NK cell line. The assay can be described thus: MTT cell proliferation assay. It counts as cell-based, canine. Conditions: highest concentration used (20 μM). On the procedure: as §1
Assay [2] deals with RDSVS-TCC1 cell line. As to the kind of experiment: MTT cell proliferation assay. Type of assay: cell-based, canine. As to conditions: highest concentration used (20 μM). Here is the method:
as §1

In assay [3] the test system is K9TCC-PU-NK cell line. As to the kind of experiment: Caspase 3/7 activation flow cytometry assay. It counts as cell-based, canine. Conditions: 24 h. On the procedure: (§2) Subsequently, to assess caspases 3/7 activation, the cells were incubated with medium alone or with increasing concentrations of compounds (Degrasyn, PR-619) in conditions similar to the previous test. Following cell collection, the cells were twice PBS-washed and stained in accordance with the manufacturer’s instructions. For active caspase 3/7 detection, CellEventCaspase-3/7 Green Detection Reagent Solution was added to the samples. The cells were then suspended 1 more time in the wash buffer after being washed twice. For flow cytometric analysis, a flow cytometers (FACS Calibur, Becton Dickinson, Biosciences, San Jose, CA, USA; CytoFlex, Beckman Coulter, CA, USA) were used, and CellQuest 3.lf (Becton Dickinson, San Jose, CA, USA) and CytExpert 2.4 (Beckman Coulter, CA, USA) software were used for data analysis. The presented results were obtained from three independent experiments.

Assay [4] concerns RDSVS-TCC1 cell line. As to the kind of experiment: Caspase 3/7 activation flow cytometry assay. As to conditions: RDSVS-TCC1, 24 h. It counts as cell-based, canine. On the procedure: as §2
For assay [5], the system named is K9TCC-PU-NK cell line. As to the kind of experiment: Ki-67 flow cytometry proliferation assay. It counts as cell-based, canine. As to conditions: 24 h, p < 0.05. On the procedure: (§3) For the cell proliferation assay, cells were plated in 100 mm cell culture plates. When the cultures reached 60% confluence, the media were discarded from the wells and replaced with culture media only or media with added compounds (Degrasyn, PR-619) with increasing concentrations for 24 h. The growth medium was then removed from the wells, the cells were rinsed twice with PBS, and 0.25% trypsin-EDTA was added to detach the cells. After 5 min of incubation at 37 °C and 5% CO2, the fresh culture medium was added to inactivate the trypsin, and cells were collected in flow cytometry tubes. Cells were then labeled using the Ki-67 Proliferation Kit BD Pharmingen(BD Biosciences) according to the manufacturer’s instructions and analyzed using a flow cytometer (Cytoflex, Beckman Coulter). Unstained control cells were used for gating to determine the percentage of the proliferation of the Ki-67-positive cells in the samples. Percentages of proliferating (Ki-67 positive) cells were used to calculate the means ± SD for each cell line. The presented results were obtained from three independent experiments.

Assay [6] has as its system RDSVS-TCC1 cell line. As to the kind of experiment: Ki-67 flow cytometry proliferation assay. As to conditions: RDSVS-TCC1, 24 h, p < 0.05. Type of assay: cell-based, canine. On the procedure: as §3
The subject of assay [7] is USP5 protein in T24 cells. The assay can be described thus: Western blot for USP5 expression. Type of assay: cell-based, human. Conditions: T24, 24 h; Degrasyn 0.6, 1.25, 2.5 μM; PR-619 1.25, 2.5, 5 μM. On the procedure: (§4) Western blot was performed to assess the expression of USP5, USP9X, and USP14 in analyzed cell lines. After 24 h of incubation with increasing concentrations of Degrasyn and PR-619, the expression of proteins involved in apoptosis (Bcl-2 and Bcl-xl) and a marker of DNA damage (γH2A.X) was also evaluated. Briefly, cells were rinsed with cold phosphate-buffered saline (PBS), suspended in lysis buffer (50 mM Tris-HCl pH 7.5, 100 mM NaCl, 1% NP-40, protease inhibitors set), and incubated for 20 min on ice. Subsequently, after centrifuging at 10,000 rpm at 4 °C for 12 min, sodium dodecyl sulfate (SDS) sample buffer was added to […]. After boiling for 5 min at 95 °C, the samples were subjected to SDS-polyacrylamide gel electrophoresis on 8–15% gel. For USP5, USP9X, USP14, γH2A.X, Bcl-2, and Bcl-xl expression analysis, transfers onto nitrocellulose membranes were performed using a Semidry Transfer Cell or wet transfer method (Bio-Rad, Hercules, CA, USA). After transfer, the membranes were blocked with 1% casein in TBS (or 3% BSA for γH2Ax) at room temperature for 1 h. […]

In assay [8] the test system is γH2AX in canine BC cell lines (K9TCC-PU-NK, RDSVS-TCC1). The assay can be described thus: Western blot for γH2AX (DNA damage). Type of assay: cell-based. As to conditions: 24 h. On the procedure: as §4
Assay [9] relates to Bcl-2 in all BC cell lines (T24, K9TCC-PU-NK, RDSVS-TCC-1). The assay can be described thus: Western blot for Bcl-2 expression. Type of assay: cell-based, human and canine. As to conditions: 24 h. Here is the method: as §4
In assay [10] the test system is Bcl-xl in all cell lines (SV-HUC-1, T24, K9TCC-PU-NK, RDSVS-TCC1). The assay can be described thus: Western blot for Bcl-xl expression. It counts as cell-based, human and canine. As to conditions: 24 h. On the procedure: as §4
Where [11] appears, read: 5 μM (highest concentration of Degrasyn).
Where [12] appears, read: only highest concentration 5 µM.
[13] abbreviates: 10 μM (highest concentration of PR-619).
Where [14] appears, read: only highest concentration 10 µM.

Values joined by “and” are separate entries in the source; they are usually repeats but may differ in a detail not shown here. Identical values can stand only once.

As for `CCC[C@H](NC(=O)/C(C#N)=C/c1cccc(Br)n1)c1ccccc1` [Degrasyn], the IC50 came out at 2.33 µM with SV-HUC-1 cell line (SV-HUC-1, 24 h exposure, MTT, read-out: IC50 (concentration that inhibited 50% of the cell proliferation)) and 3.07 µM with T24 cell line (T24, 24 h exposure, MTT, read-out: IC50 (concentration that inhibited 50% of the cell proliferation)). Further, the “cells killed at the highest concentration” value in the assay with SV-HUC-1 cell line, in the assay on T24 cell line, in the assay with K9TCC-PU-NK cell line [1] and with RDSVS-TCC1 cell line [2] was around 100% throughout. For the same compound, the “percentage of cells with active caspase 3/7” value is 5.4% in the assay on K9TCC-PU-NK cell line [3] (1.25 μM); 7.1% in the assay with K9TCC-PU-NK cell line [3] (2.5 μM); 11.9 ± 1.8% and 11.9% in the assay on K9TCC-PU-NK cell line [3] (setting [11]); 5.9% in the assay with RDSVS-TCC1 cell line [4] (1.25 μM); 11.7% in the assay on RDSVS-TCC1 cell line [4] (2.5 μM); 22.5 ± 4.3% and 22.5% in the assay on RDSVS-TCC1 cell line [4] (setting [11]). Further, the “percentage of Ki-67 positive cells (as compared to control)” value in the assay on K9TCC-PU-NK cell line [5] (setting [12]) and in the assay with RDSVS-TCC1 cell line [6] (setting [12]) was “significantly decreased” throughout. Also, the USP5 protein expression entry in assay [7] was “clearly decreased”. Further, in assay [8] (only 5 µM), the “expression of γH2AX” value is “high expression”. The “expression of Bcl-2 protein” value in [9] (5 μM) is listed as “slightly decreased”. Further, in [10] (all cell lines, 5 μM), the Bcl-xl expression entry was “slightly reduced”.

Regarding `N#CSc1cc(SC#N)c(N)nc1N` [PR-619], the “cells killed at the highest concentration” value with SV-HUC-1 cell line, with T24 cell line, with K9TCC-PU-NK cell line [1] and in the assay on RDSVS-TCC1 cell line [2] was around 100% each time. Further, the “percentage of cells with active caspase 3/7” value in the assay on K9TCC-PU-NK cell line [3] (2.5 μM) is 6.4%; in the assay with K9TCC-PU-NK cell line [3] (setting [11]), 9.9%; in the assay with K9TCC-PU-NK cell line [3] (setting [13]) it was 13.3 ± 3.3% and 13.2%; in the assay with RDSVS-TCC1 cell line [4] (2.5 μM), 6.1%; in the assay on RDSVS-TCC1 cell line [4] (setting [11]), 12.9%; with RDSVS-TCC1 cell line [4] (setting [13]) it was 16.2 ± 7.4% and 16.2%. Also, the “percentage of Ki-67 positive cells (as compared to control)” value in the assay on K9TCC-PU-NK cell line [5] (setting [14]) and in the assay with RDSVS-TCC1 cell line [6] (setting [14]) was “significantly decreased” each time. Further, the USP5 protein expression entry in [7] is “no visible effect”. For the same compound, in assay [8] (highest concentrations of the drug), the “amount of γH2AX” value was “only a slight visible increase”. Moreover, the “expression of Bcl-2 protein” value in [9] (10 μM) was “slightly decreased”. Besides, in assay [10] (analyzed cell lines, increasing concentrations), the Bcl-xl expression entry is listed as “No clearly visible changes”.

For the origin of these results see PMC10045593, “Ubiquitin-Specific Proteases as Potential Therapeutic Targets in Bladder Cancer—In Vitro Evaluation of Degrasyn and PR-619 Activity Using Human and Canine Models” (Biomedicines, 2023).
